≈ marks a conversion by molar mass, not a printed value. Like-named read-outs stand apart in the source and are kept apart here.
How the values were obtained:
[1] = molecular target: T1, α-chymotrypsin (bovine pancreas) (Bos taurus, UniProt P00766); test: α-Chymotrypsin inhibition assay; format: biochemical; conditions: substrate concentration near Km (0.75 mM N-succinyl-Gly-Gly-Phe-p-nitroanilide)
T1 construct: purchased Sigma C4129
Experimental: (§1) The test samples for 1-6 were prepared in DMSO by (log/2)-fold dilutions ranging from 1 mM to 100 pM. All assays were performed in triplicate. Phenylmethylsulfonyl fluoride (PMSF) was used as a positive control in the enzyme assays.
(§2) Inhibitory activity against α-chymotrypsin (bovine pancreas; Sigma, C4129) was determined as follows. A 1-mg/mL solution of chymotrypsin was prepared in assay buffer (50 mM Tris-HCl/100 mM NaCl/1 mM CaCl2, pH 7.8). […] The increase in absorbance was measured for 30 min at intervals of 5 min at 405 nm.

[2] = molecular target: T2, porcine pancreatic elastase (Sus scrofa, UniProt P00772); test: Porcine pancreatic elastase inhibition assay; format: biochemical; conditions: for IC50: substrate concentration near Km (1.5 mM N-succinyl-Ala-Ala-Ala-p-nitroanilide), read-out: Porcine pancreatic elastase inhibitory activity IC50
T2 construct: purchased EPC EC134
T2 sequence (P00772 27-266): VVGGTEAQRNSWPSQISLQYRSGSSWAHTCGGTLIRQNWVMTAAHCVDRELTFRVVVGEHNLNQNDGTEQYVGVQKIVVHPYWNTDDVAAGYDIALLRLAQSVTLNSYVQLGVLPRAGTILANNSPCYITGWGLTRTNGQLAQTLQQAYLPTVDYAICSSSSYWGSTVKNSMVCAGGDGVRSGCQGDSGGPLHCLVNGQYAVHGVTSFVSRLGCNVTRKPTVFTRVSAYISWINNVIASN
Experimental: as §1
To test the inhibition of porcine pancreatic elastase (Elastase-high purity; EPC, EC134), 75 μg/mL solution of elastase was prepared using Tris-HCl (pH 8.0). […] After preincubation of 165 μL of Tris-HCl (pH 8.0), 10 μL of elastase solution, and 10 μL of test samples in DMSO (5% final concentration) in a microtiter plate at 30° C. for 20 min, 15 μL of substrate solution (1.5 mM final concentration) was added to the mixture. The increase in absorbance was measured for 30 min at intervals of 5 min at 405 nm. Competitive binding was determined by plotting enzyme activity against substrate concentrations in the presence of different inhibitor concentrations (Lineweaver-Burk plot).

[3] = tested on: HT29 colon adenocarcinoma cells; test: MTT-based cell viability assessment; conditions: highest concentration tested (50 μM)
Experimental: The effects of compounds 5 and 6 on the proliferation of cancer cells was also assessed.

[4] = molecular target: T3, trypsin from porcine pancreas (Sus scrofa, UniProt P00761); test: Trypsin inhibition assay; format: biochemical
T3 construct: purchased Sigma T0303
T3 sequence (P00761 9-231): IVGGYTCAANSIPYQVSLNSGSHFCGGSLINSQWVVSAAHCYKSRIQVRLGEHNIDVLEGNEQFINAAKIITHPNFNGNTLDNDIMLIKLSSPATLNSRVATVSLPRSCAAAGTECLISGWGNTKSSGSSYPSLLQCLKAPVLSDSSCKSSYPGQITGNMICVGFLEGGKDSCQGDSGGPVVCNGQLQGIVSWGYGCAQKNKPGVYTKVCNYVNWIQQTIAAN
Experimental: as §1, §2
Inhibitory activity against trypsin was assayed as described above for chymotrypsin, using trypsin from porcine pancreas (Sigma, T0303) and Nα-benzoyl-DL-arginine-4-nitroanilide hydrochloride as the substrate solution.

trypsin = conditions: cited from earlier work
chymotrypsin = conditions: literature, Amp-containing compound; cited from earlier work
elastase = elastase (Sus scrofa, UniProt P00772); conditions: literature, cited from earlier work
Chain of elastase (P00772 27-266): as the sequence (P00772 27-266) above

C/C=C1\NC(=O)C(NC(=O)C(CCc2ccc(O)cc2)NC(=O)C(C)NC(=O)C(O)CO)C(C)OC(=O)C(C(C)C)NC(=O)C(Cc2ccc(O)cc2)N(C)C(=O)C(Cc2ccccc2)N2C(=O)C(CCC2O)NC1=O (stereo not shown) [Compound 1, Lyngbyastatin 5]
IC50 [1]: 2800 ± 300 nM
IC50 [2]: 3.2 ± 2 nM

C/C=C1\NC(=O)[C@@H](NC(=O)[C@H](CCc2ccc(O)cc2)NC(=O)[C@H](C)NC(=O)[C@H](O)COS(=O)(=O)O)[C@@H](C)OC(=O)[C@H](C(C)C)NC(=O)[C@H](Cc2ccc(O)cc2)N(C)C(=O)[C@H](Cc2ccccc2)N2C(=O)[C@H](CC[C@H]2OC)NC1=O [Compound 2, Lyngbyastatin 6]
IC50 [1]: 2500 ± 800 nM
IC50 [2]: 3.3 ± 0.8 nM

C/C=C1\NC(=O)C(NC(=O)C(CCC(N)=O)NC(=O)CCC)C(C)OC(=O)C(C(C)C)NC(=O)C(Cc2ccc(O)cc2)N(C)C(=O)C(Cc2ccccc2)N2C(=O)C(CCC2O)NC1=O (stereo not shown) [Compound 4, somamide B, reference compound]
IC50 [1]: 4200 ± 500 nM
IC50 [2]: 9.5 ± 5.2 nM

CC(=O)N1CCC[C@H]1C(=O)N[C@H](C(=O)N[C@@H]1C(=O)N[C@@H](CC(C)C)C(=O)NC2CC[C@@H](O)N(C2=O)[C@@H](Cc2ccccc2)C(=O)N(C)C(Cc2ccc(O)cc2)C(=O)N[C@@H](C(C)C)C(=O)O[C@@H]1C)[C@@H](C)O (stereo partly shown) [Compound 5, Kempopeptin A]
effect on growth of HT29 cells [3]: did not significantly affect the growth
elastase inhibition and selectivity over chymotrypsin [2]: inhibited elastase with a slight selectivity over chymotrypsin

CCCC(=O)N[C@H](C(=O)N[C@@H]1C(=O)N[C@@H](CCCCN)C(=O)N[C@H]2CC[C@@H](O)N(C2=O)[C@@H]([C@@H](C)CC)C(=O)N(C)[C@@H](Cc2ccc(OC)c(Br)c2)C(=O)N[C@@H](C(C)C)C(=O)O[C@@H]1C)C(C)C [Compound 6, Kempopeptin B]
effect on growth of HT29 cells [3]: did not significantly affect the growth
trypsin inhibition, selectivity versus elastase and chymotrypsin [4]: selective in vitro trypsin inhibition
trypsin inhibition, selectivity versus elastase and chymotrypsin ([4]; listed as kempopeptin B): inhibited only trypsin activity

C/C=C1\NC(=O)C(NC(=O)C(CCc2ccc(O)cc2)NC(=O)C(C)NC(=O)C(O)COS(=O)(=O)O)C(C)OC(=O)C(C(C)C)NC(=O)C(Cc2ccc(O)cc2)N(C)C(=O)C(Cc2ccccc2)N2C(=O)C(CCC2O)NC1=O (stereo not shown) [lyngbyastatin 4]
trypsin activity upon treatment, previous findings (trypsin; previous publication (J. Nat. Prod. 2007, 70, 124-127)): unaffected

CCCCCC(=O)N[C@@H](CC(=O)O)C(=O)N[C@@H]1C(=O)N[C@@H](CCCCN)C(=O)N[C@H]2CC[C@@H](O)N(C2=O)[C@@H]([C@@H](C)CC)C(=O)N(C)[C@@H](Cc2ccc(O)cc2)C(=O)N[C@@H](C(C)C)C(=O)O[C@@H]1C [micropeptin SD944]
IC50 against trypsin (trypsin; literature value): 8.0 µg/mL (≈ 8.46 µM)

oscillapeptin C
chymotrypsin inhibition (chymotrypsin): still inhibits chymotrypsin
elastase inhibition (elastase; Amp-containing compound): does not inhibit elastase

planktopeptin BL843
protease-inhibitory activity compared with the other planktopeptins (elastase): one order of magnitude lower
